Experimental data published in patent US6492137B1, “Response element compositions and assays employing same” (The Salk Institute for Biological Studies, priority 1989, dated 2002).

T1: TRβ (Homo sapiens, UniProt P10828)
T1 sequence (P10828 1-461): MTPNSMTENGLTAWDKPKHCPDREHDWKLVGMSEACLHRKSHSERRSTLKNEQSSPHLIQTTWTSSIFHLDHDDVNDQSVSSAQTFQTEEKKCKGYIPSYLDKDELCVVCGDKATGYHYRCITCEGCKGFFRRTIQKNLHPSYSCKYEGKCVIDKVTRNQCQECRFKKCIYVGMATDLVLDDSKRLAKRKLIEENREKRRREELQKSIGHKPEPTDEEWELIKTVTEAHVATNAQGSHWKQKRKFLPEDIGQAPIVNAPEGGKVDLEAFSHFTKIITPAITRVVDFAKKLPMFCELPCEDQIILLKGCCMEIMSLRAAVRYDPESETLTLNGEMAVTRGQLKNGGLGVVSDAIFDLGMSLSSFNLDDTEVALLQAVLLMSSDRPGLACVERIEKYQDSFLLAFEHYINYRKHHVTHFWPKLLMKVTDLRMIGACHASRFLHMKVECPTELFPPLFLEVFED

T2: RAR (Homo sapiens, UniProt P10276)
T2 construct: expressed in transfected cells; host or cells: CV-1 (monkey kidney)
T2 sequence (P10276 1-462): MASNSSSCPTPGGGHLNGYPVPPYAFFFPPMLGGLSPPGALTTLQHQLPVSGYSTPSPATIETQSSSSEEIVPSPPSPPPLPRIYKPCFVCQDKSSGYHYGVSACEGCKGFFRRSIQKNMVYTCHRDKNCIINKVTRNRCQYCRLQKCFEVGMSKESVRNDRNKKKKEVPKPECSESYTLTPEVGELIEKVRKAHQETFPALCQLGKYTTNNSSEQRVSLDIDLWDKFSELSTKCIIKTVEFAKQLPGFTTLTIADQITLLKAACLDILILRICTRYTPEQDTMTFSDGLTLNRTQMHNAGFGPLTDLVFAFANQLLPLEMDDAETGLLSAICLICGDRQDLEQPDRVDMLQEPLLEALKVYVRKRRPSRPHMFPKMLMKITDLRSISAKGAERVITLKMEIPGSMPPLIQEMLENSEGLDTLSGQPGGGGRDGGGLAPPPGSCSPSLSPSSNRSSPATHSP

T3: RARα (Homo sapiens, UniProt P10276)
T3 sequence (P10276 1-462): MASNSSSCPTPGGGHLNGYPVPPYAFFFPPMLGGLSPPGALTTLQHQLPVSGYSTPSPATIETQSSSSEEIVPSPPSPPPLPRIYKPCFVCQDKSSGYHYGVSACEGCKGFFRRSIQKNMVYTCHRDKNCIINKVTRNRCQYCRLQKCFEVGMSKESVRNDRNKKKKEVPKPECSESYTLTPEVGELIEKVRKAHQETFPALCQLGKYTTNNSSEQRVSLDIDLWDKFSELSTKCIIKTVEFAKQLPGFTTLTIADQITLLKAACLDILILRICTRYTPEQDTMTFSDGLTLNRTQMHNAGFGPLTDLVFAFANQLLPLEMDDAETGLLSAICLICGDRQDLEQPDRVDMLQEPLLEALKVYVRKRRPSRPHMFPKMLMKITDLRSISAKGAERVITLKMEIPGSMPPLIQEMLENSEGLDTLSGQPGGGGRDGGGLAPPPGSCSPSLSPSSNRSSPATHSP

T4: Retinoic acid receptor alpha (RARα), in CV-1 cells (Homo sapiens, UniProt P10276 P10276:1-462)
T4 sequence: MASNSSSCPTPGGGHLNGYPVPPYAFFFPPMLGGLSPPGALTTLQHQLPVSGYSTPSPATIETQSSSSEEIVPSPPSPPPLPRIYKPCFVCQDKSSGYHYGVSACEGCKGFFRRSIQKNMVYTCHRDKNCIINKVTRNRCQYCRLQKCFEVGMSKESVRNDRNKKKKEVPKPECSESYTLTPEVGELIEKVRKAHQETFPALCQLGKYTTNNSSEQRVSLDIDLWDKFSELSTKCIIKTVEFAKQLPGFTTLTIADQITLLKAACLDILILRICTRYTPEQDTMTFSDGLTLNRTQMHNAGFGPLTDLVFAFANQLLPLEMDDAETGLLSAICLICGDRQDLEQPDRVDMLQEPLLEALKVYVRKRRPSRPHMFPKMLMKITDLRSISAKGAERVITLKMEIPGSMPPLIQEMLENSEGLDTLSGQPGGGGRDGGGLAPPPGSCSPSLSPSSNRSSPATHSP


Legend:
TRβ = biological target: T1, TRβ; assay: Gel retardation DNA-binding assay with TRβ-expressing COS cell extracts; design: expressed in transfected cells; host or cells: COS cells (whole-cell extract)
Method in brief: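 Extracts of COS cells transfected with pCMX TRβ expression plasmid, 48 h post-transfection; 5 μg protein pre-incubated on ice 20 min with poly dI/dC, then 40 fmole 32P-labelled oligonucleotide 30 min at room temperature. Complexes resolved on 5% polyacrylamide gel.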

RAR = biological target: T2, RAR; assay: Delta-MTV constructs, RA induction in CV-1 cells with cotransfected RAR expression vector; format: cell-based; conditions: Delta-MTV-CAT constructs; CV-1 cells
Method: Inspection of the sequences of βRE1, βRE2, and βRE3 (see FIG. 2b) identifies a tandem repeat of the 6 bp motif. The center to center separation of 11 bp between these repeats is one turn of the DNA helix. […] Apparently, a single half site element of the RARβ gene would reciprocally be responsive to the TR, ER, and/or other members of the receptor superfamily.
(§1) Cells were transfected in 10 cm dishes with 10 μg of DNA containing 5 μg of reporter plasmid, 1-2 μg of either RSV-LUC (a), or RSV-βGAL or pCH110 (c and d), pGEM4 as carrier DNA, and for the experiments shown in a and d, 1 μg of RSV-RAR expression vector or the same amount of an RSV vector generating a nonsense transcript. Cells were harvested 1 day after addition of retinoic acid. All CAT assays represent equivalent amounts of β-galactosidase activity; β-GAL assays were normalized to luciferase activity.

endogenous RA receptor [1] = assay: Delta-MTV-CAT constructs, RA induction in CV-1 cells without cotransfected RAR expression vector; format: cell-based, monkey
Method: as §1

endogenous RA receptor [2] = assay: Survey of cell lines for RA-dependent transactivation of the βRARE without transfected RAR; format: cell-based; conditions: CV-1, F9, P19, CHO, HeLa, NIH 3T3, Rat2 fibroblasts, HT1080.T, chick embryo fibroblasts, quail QT6 cells
RARα = biological target: T3, RARα; assay: Gel retardation DNA-binding assay with RARα-expressing COS cell extracts; design: expressed in transfected cells; host or cells: COS cells (whole-cell extract)
Method: For DNA binding assays, COS cells were cultured in DMEM with 10% calf bovine serum and transfected by the calcium phosphate method with 20 μg of the pCMX receptor expression plasmid for 6 hours followed by a glycerol shock. After incubating the transfected COS cells for another 48 hours, the cells were harvested to prepare extracts for the DNA binding assay, carried out as described by Damm et al., Nature 339: 593-597 (1989). The extracts were made in 20 mM HEPES (pH 7.4), 0.4 M KCl, 2 mM DTT and 20% glycerol. A similar method was employed to prepare a whole cell extract from F9 stem cells. For the binding, 5 μg (COS) or 10 μg (F9) of proteins was incubated on ice for 20 minutes, first in 20 mM HEPES, 80 mM KCl, 1 mM DTT, 0.1% NP40, 2.5 μg of poly dI/dC, and 10% glycerol (cold competitor oligonucleotides, when included, were added during this pre-incubation period). Then 40 fmole of ^32P-labeled oligonucleotide probe (1-2×10^5 cpm, prepared by filling-in reaction using Klenow polymerase in the presence of α-^32P-dCTP) was added to the reaction mixture, followed by incubation at room temperature for 30 minutes. The receptor-DNA complexes were resolved by electrophoresis through 5% polyacrylamide gel containing 5% glycerol at 6 V/cm at room temperature.
Oligonucleotides listed in FIG. 3 were used as a probe to test specific DNA-binding of the RARα and TRβ in a gel retardation assay. On the βRARE, a faint background binding activity was detected in the mock transfected COS cell extract. […] In each case the result obtained from in vivo transactivation and in vitro DNA binding are consistent.
Using the mobility shift assay, the DNA-binding capacity of extracts from COS cells expressing TRβ and RARα to these sequences was also tested. […] This pattern is consistent with that of the in vivo activation (FIG. 4). A reciprocal pattern was obtained when the same oligonucleotides were used to compete RARα binding to the ^32P-labeled βRARE. […] This provides a striking example of the role of half-site spacing in generating a functional response element.

[3] = biological target: T4, Retinoic acid receptor alpha (RARα), in …; assay: cell_activity; RA 1 µM, CV-1; conditions: tags: RSV or pRS expression vector; label: 32P; 5'-agct overhangs
Method: For cotransfection assays, a monkey kidney cell line CV-1 was kept in Dulbecco's modified Eagle's medium (DMEM) supplemented with 10% charcoal-resin double split calf bovine serum. Transfections were performed via calcium-phosphate precipitation method as described by Umesono, et al. in Cell 57: 1139–1146 (1989), with 0.5 μg of a pRS receptor expression plasmid, 1.0 μg of a reporter CAT plasmid, 5 μg of pRAS-βGAL [Umesono, et al., Cell 57: 1139–1146 (1989)] as an internal control, and 8.5 μg of carrier plasmid pUC19. The cells were transfected for 8 hours; after washing the DNA precipitates, the cells were then incubated for an additional 36 hours with or without the ligand (T_3, 100 nM; RA, 1 μM; 1,25-(OH)_2 vitamin D_3, 100 nM). Cell extracts were prepared for βGAL and CAT assays, as described by Umesono, et al., supra. Transfection of F9 teratocarcinoma cells was carried out employing a similar method except the cells were incubated for 12 hours in the presence of the DNA precipitates, and the RA was added at 1 μM for another 24 hours before harvesting the cells. 2, 5, and 4 μg of the reporter, pRAS-βGAL, and pUC19 were used, respectively.
The above strategies were used to test both in vivo transactivation and in vitro DNA-binding of these artificial HREs for TRβ, RARα, and VDR. […]

Row | Molecule | TRβ binding to labeled oligonucleotide probe (TRβ; gel retardation, TRβ COS cell extract) | competition for TRβ binding (mobility shift assay) (TRβ; unlabeled competitor oligonucleotide, COS cells expressing TRβ) | increase of induction by cotransfection of RAR-alpha expression vector (RAR) | RA-dependent induction in the absence of cotransfected RAR expression vector (endogenous RA receptor [1]) | RA-dependent transactivation in the absence of transfected RAR expression vector (endogenous RA receptor [2]) | RARα binding to labeled oligonucleotide probe (RARα; gel retardation, RARα COS cell extract) | competition for RARα binding to 32P-labeled βRARE (RARα; unlabeled competitor oligonucleotide, COS cell extracts) | activity [3]
1 | 5′-AAGCTTAAG-GGTTCA-CCGAA-AGTTCA-CTCGCATAGCTT-3′ (SEQ ID NO:6) (AAGCTTAAGGGTTCACCGAAAGTTCACTCGCATAGCTT; DNA, backbone not given here) [βRE2, oligonucleotide including the β retinoic acid response element; βRARE corresponds to βRE2] | weak, yet detectable binding activity | poor competitors | two-fold | robust RA-dependent induction | efficiently transactivate | dramatically enhanced | effective competitors | –
2 | DR-5 (dsDNA) DNA 1: AGCTTCAGGTCACCAGGAGGTCAGAGAGCT DNA 2: AGCTCTCTGACCTCCTGGTGACCTGAAGCT | – | – | – | – | – | – | – | 9 fold induction
